Test results from patent US20080234323A1, “Amorphous and Three Crystalline Forms of Rimonabant Hydrochloride” (priority 2005, published 2008).

Experiment: Solubility of different forms of Rimonabant hydrochloride in solvents
Assay type: physicochemical
Settings: at R.T.
Text: • All the forms were soluble in alcohols such as methanol, ethanol etc.

In the case of `Cc1c(C(=O)NN2CCCCC2)nn(-c2ccc(Cl)cc2Cl)c1-c1ccc(Cl)cc1` [Form II, 5-(4-chlorophenyl)-1-(2,4-dichlorophenyl)-4-methyl-N-(piperidin-1-yl)pyrazole-3-carboxamide], the solubility in acetone is reported as “partly soluble” and the solubility in acetonitrile is reported as “partly soluble”.
